Data reported in article PMC7377361, “Pressurized DNA state inside herpes capsids—A novel antiviral target” (PLoS Pathogens, 2020).
Where no end group is shown, it is not given here.

Tests used:
[1] = tested on: NPC; assay: Nuclear import assay (GST-NLS-EGFP) in isolated rat liver nuclei; type: biochemical; conditions: cytosol and ATP regeneration system, 37 °C
Description: (§1) This was verified with a fluorescently labeled nuclear localization signal (NLS), added to purified rat liver nuclei incubated with cytosolic extracts (as a source of soluble import factors) supplemented with an ATP regeneration system, see Supporting Materials for experimental description and S4A Fig. These controls were also reproduced with a digitonin-permeabilized cell assay, which accurately recapitulates capsid-nucleus binding and nuclear import in living cells; see Supporting Materials and data shown in S4B Fig. In agreement with observations in the isolated nuclei system (Fig 3B), we also confirmed via a digitonin-permeabilized cell assay that none of the three compounds interfered with capsid-NPC binding in cells. Attachment of GFP-capsids to nuclei was visualized with SR-SIM (S4C Fig). The addition of WGA prevented capsid binding, showing capsid-NPC binding specificity (S4C Fig).
Rat liver cell nuclei were incubated with GST-NLS-EGFP at 37 °C for 40 min in CBB buffer containing: (i) rat liver cell cytosol, (ii) 1 mg/mL BSA, and (iii) ATP regeneration system. The complete binding mixture was loaded onto coverslips and processed for fluorescence imaging as described above. When indicated, nuclei were preincubated with the polyvalent cationic agents at the concentrations described above for 2 h before performing import assays. […]

[2] = tested on: HSV-1 C-capsids; assay: Binding of GFP-HSV-1 C-capsids to nuclei of digitonin-permeabilized Vero cells (SR-SIM); type: cell-based
Description: as §1
To obtain cytosolic extracts as a source of soluble import factors, Vero cell monolayers (4 x 10^7 cells) were washed with ice-cold PBS and scraped off the plate into 5 ml of cold PBS. […] The samples were then processed for fluorescence imaging as described above. […]

Molecule	nuclear import of GST-NLS-GFP protein [1]	binding of GFP-HSV-1 C-capsids to nuclei of permeabilized cells [2]
RRRRR [Arg^5+]	not blocked	not blocked
NCCCN(CCCN)CCCCN(CCCN)CCCN [DAB-Am-4]	not blocked	not blocked
